In US20250340563A1, “FUSED PYRIDAZINE DERIVATIVES AS NLRP3 INHIBITORS” (Takeda Pharmaceutical Company Limited, priority 2022, published 2025):

Molecular target: NLRP3 inflammasome (Homo sapiens, UniProt Q96P20)
Assay: IL-1β assay in IFN-γ-differentiated, LPS-primed, ATP-activated THP-1 cells (ELISA)
Format: cell-based
Conditions: 50 ng/mL LPS priming, 2.5 mM ATP activation, 2 hours
Experimental: Monocytic THP-1 cells (ATCC: TIB-202) are maintained in accordance with the provider's instructions in RPMI media (Life Technologies, Cat #A10491-01); RPMI is supplemented with 10% heat inactivated fetal bovine serum (Hyclone Cat #SH30396.03). The cells are differentiated into macrophages by the addition of 25 ng/mL IFN-7 (PeproTech, Cat #300-02-100UG) for 24 hours at 37° C./5% CO2. Media is exchanged with fresh media with no FBS, and the cells are treated with 50 ng/mL LPS (priming step) for 24 hours at 37° C./5% CO2 (LPS-EK: Invivogen, Cat #tlrl-peklps). Media is exchanged with fresh media with no FBS. The cells are plated at 40,000 cells per well in 384-well flat-bottom cell culture plates (Costar 3764) containing compounds (added in 1:1000) in a 1:3.16 serial dilution series in DMSO and are incubated for 30 minutes at 37° C./5% CO2. The NLRP3 inflammasome is activated with the addition of 2.5 mM ATP (Sigma Cat #A3377) and the cells are incubated for 2 hours at 37° C./5% CO2. At the end of the incubation period, 40 μL supernatant is removed, and […] are monitored using an ELISA (Human […], R&D systems, Cat #DY201) in accordance with the manufacturer's instructions.
The IC50 values are calculated from a plot of percentage of inhibition versus the inhibitor concentration by a logistics curve fit according to: Y=[Bottom+(Top−Bottom)]/(1+10^[(Log IC50−X)·Hill Slope], where Y is the % inhibition at the inhibitor concentration, X, “Bottom” is the lowest inhibition value, i.e. 0%, “Top” is the maximum inhibition value, i.e. 100%, and the “Hill Slope” describes the slope of the sigmoidal curve between the “Bottom” and “Top” values. The curve fitting was conducted with internally developed software.

Chain of NLRP3 inflammasome (Q96P20 whole entry): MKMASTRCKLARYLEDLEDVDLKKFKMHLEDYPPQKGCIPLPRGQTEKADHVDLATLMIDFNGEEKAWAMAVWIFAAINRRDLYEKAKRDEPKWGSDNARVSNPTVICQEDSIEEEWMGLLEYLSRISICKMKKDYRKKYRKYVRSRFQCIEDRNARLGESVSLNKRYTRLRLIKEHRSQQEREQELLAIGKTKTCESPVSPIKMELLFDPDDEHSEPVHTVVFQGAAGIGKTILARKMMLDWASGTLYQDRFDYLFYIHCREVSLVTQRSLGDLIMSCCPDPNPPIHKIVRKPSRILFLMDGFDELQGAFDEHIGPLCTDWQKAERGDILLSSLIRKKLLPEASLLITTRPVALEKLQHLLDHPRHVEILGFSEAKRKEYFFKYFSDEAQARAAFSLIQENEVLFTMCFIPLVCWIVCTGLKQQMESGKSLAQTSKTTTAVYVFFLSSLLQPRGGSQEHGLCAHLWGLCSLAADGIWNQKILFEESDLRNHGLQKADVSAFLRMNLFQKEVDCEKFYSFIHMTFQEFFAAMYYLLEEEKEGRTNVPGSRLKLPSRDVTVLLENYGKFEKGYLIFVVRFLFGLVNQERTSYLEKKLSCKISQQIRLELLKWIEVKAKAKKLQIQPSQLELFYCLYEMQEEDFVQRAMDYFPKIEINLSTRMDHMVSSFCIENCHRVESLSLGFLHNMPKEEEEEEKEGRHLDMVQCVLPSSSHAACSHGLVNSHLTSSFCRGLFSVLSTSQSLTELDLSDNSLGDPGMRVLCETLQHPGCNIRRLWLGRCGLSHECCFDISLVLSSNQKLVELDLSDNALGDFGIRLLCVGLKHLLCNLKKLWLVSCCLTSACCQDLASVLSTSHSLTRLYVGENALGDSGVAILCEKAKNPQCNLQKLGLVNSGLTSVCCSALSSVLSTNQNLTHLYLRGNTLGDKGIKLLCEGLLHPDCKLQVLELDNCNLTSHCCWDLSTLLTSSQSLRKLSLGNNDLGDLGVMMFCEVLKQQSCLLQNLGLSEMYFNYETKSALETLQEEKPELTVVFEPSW

| SMILES | IC50 [nM] |
| --- | --- |
| CC(=O)N1CCc2c(NC3CCCN(C)C3)nnc(-c3ccc(Cl)cc3)c2C1 (centres unmarked) [Example 104, 1-(4-(4-chlorophenyl)-1-((1-methylpiperidin-3-yl)amino)-7,8-dihydropyrido[3,4-d]pyridazin-6(5H)-yl)ethan-1-one] | 1660 |
| COc1ccc(-c2nnc(NC3CCCC(C)(O)C3)c3ccccc23)cc1 (centres unmarked) [Example 137, 3-((4-(4-methoxyphenyl)phthalazin-1-yl)amino)-1-methylcyclohexan-1-ol] | 3800 |
| CCN1CCCC1CNc1nnc(-c2ccc(OC)cc2)c2ccccc12 (centres unmarked) [Example 125, N-((1-ethylpyrrolidin-2-yl)methyl)-4-(4-methoxyphenyl)phthalazin-1-amine] | 2750 |
| CC(=O)N1CCC(Nc2nnc(-c3ccc(Cl)cc3)c3ccccc23)C1 (centres unmarked) [Example 160, 1-(3-((4-(4-chlorophenyl)phthalazin-1-yl)amino)pyrrolidin-1-yl)ethan-1-one] | 4790 |
| CN1CCC[C@@H](Nc2nnc(-c3ccc(O)cc3)c3ccncc23)C1 [Example 23, (R)-4-(4-((1-methylpiperidin-3-yl)amino)pyrido[3,4-d]pyridazin-1-yl)phenol] | 10000 |
| Cc1cc(Cl)ccc1-c1nnc(NC2CCCN(C)C2)c2cnccc12 (centres unmarked) [Example 49, 1-(4-chloro-2-methylphenyl)-N-(1-methylpiperidin-3-yl)pyrido[3,4-d]pyridazin-4-amine] | 288 |
| Cc1nccc2c(NC3CCCN(C)C3)nnc(-c3ccc(Cl)cc3)c12 (centres unmarked) [Example 77, 4-(4-chlorophenyl)-5-methyl-N-(1-methylpiperidin-3-yl)pyrido[3,4-d]pyridazin-1-amine] | 1510 |
| O[C@]1(C(F)(F)F)C[C@@H](Nc2nnc(-c3ccc(Cl)cc3)c3ccccc23)C1 [Example 117, trans-3-((4-(4-chlorophenyl)phthalazin-1-yl)amino)-1-(trifluoromethyl)cyclobutan-1-ol] | 624 |
| COc1ccc(-c2nnc(NC3CCCN(C)C3)c3cnn(C)c23)cc1 (centres unmarked) [Example 150, 7-(4-methoxyphenyl)-1-methyl-N-(1-methylpiperidin-3-yl)-1H-pyrazolo[3,4-d]pyridazin-4-amine] | 325 |
| Oc1cccc(Nc2nnc(-c3ccc(C4(C(F)(F)F)CC4)cc3)c3ccccc23)c1 [Example 4, 3-((4-(4-(1-(trifluoromethyl)cyclopropyl)phenyl)phthalazin-1-yl)amino)phenol] | 1410 |
| Cc1ccccc1-c1nnc(NC2CCCN(C)C2)c2ccccc12 (centres unmarked) [Example 12, N-(1-methylpiperidin-3-yl)-4-(o-tolyl)phthalazin-1-amine] | 2570 |
| Cc1cccc(-c2nnc(NC3CCCN(C)C3)c3ccccc23)c1 (centres unmarked) [Example 18, N-(1-methylpiperidin-3-yl)-4-(m-tolyl)phthalazin-1-amine] | 1150 |
| Clc1ccc(-c2nnc(NC3CCN(Cc4ccccc4)C3)c3ccccc23)cc1 (centres unmarked) [Example 158, N-(1-benzylpyrrolidin-3-yl)-4-(4-chlorophenyl)phthalazin-1-amine] | 2290 |
| C[C@]1(O)C[C@@H](Nc2nnc(-c3ccc(Cl)cc3O)c3cnccc23)C1 [Example 94, cis-5-chloro-2-(1-((3-hydroxy-3-methylcyclobutyl)amino)pyrido[3,4-d]pyridazin-4-yl)phenol] | 102 |
| CCN1CCc2c(-c3ccc(Cl)cc3)nnc(NC3CCCN(C)C3)c2C1 (centres unmarked) [Example 102, 1-(4-chlorophenyl)-6-ethyl-N-(1-methylpiperidin-3-yl)-5,6,7,8-tetrahydropyrido[3,4-d]pyridazin-4-amine] | 692 |
| Clc1ccc(-c2nnc(NC3CCN4CCC3C4)c3ccccc23)cc1 (centres unmarked) [Example 167, N-(1-azabicyclo[3.2.1]octan-4-yl)-4-(4-chlorophenyl)phthalazin-1-amine] | 3390 |
| COc1ccc(-c2nnc(NC3CCN(C)C3)c3ccccc23)cc1 (centres unmarked) [Example 126, 4-(4-methoxyphenyl)-N-(1-methylpyrrolidin-3-yl)phthalazin-1-amine] | 2570 |
| O[C@]1(C(F)(F)F)C[C@H](Nc2nnc(-c3ccc(Cl)cc3)c3ccccc23)C1 [Example 120, cis-3-((4-(4-chlorophenyl)phthalazin-1-yl)amino)-1-(trifluoromethyl)cyclobutan-1-ol] | 933 |
| COc1ccc(-c2nnc(N(C)C3CCCN(C)C3)c3ccccc23)cc1 (centres unmarked) [Example 45, 4-(4-methoxyphenyl)-N-methyl-N-(1-methylpiperidin-3-yl)phthalazin-1-amine] | 4120 |
| COc1ccc(-c2nnc(NCC(C)N3CCCC3)c3ccccc23)cc1 (centres unmarked) [Example 129, 4-(4-methoxyphenyl)-N-(2-(pyrrolidin-1-yl)propyl)phthalazin-1-amine] | 2820 |
| CN1CCCC(Nc2nnc(-c3ccc(Cl)cc3Cl)c3ccncc23)C1 (centres unmarked) [Example 51, 1-(2,4-dichlorophenyl)-N-(1-methylpiperidin-3-yl)pyrido[3,4-d]pyridazin-4-amine] | 158 |
| CN1CCC[C@@H](Nc2nnc(-c3ccccc3O)c3c2CCOC3)C1 [Example 227, (R)-2-(1-((1-methylpiperidin-3-yl)amino)-7,8-dihydro-5H-pyrano[3,4-d]pyridazin-4-yl)phenol] | 21 |

More lines, in order of falling IC50, values ahead:

| IC50 [nM] | SMILES |
| --- | --- |
| 3890 | COc1ccc(-c2nnc(NCC3CCCCN3C)c3ccccc23)cc1 (centres unmarked) [Example 130, 4-(4-methoxyphenyl)-N-((1-methylpiperidin-2-yl)methyl)phthalazin-1-amine] |
| 3470 | CC(C)[C@@H]1CN(C)C[C@H]1Nc1nnc(-c2ccc(Cl)cc2)c2ccccc12 [Example 165, 4-(4-chlorophenyl)-N-((3S,4R)-4-isopropyl-1-methylpyrrolidin-3-yl)phthalazin-1-amine] |
| 2000 | CN1CCC[C@H](Nc2nnc(-c3ccc(Cl)cc3F)c3ccncc23)C1 [Example 70, (S)-1-(4-chloro-2-fluorophenyl)-N-(1-methylpiperidin-3-yl)pyrido[3,4-d]pyridazin-4-amine] |
| 1590 | FCCN1CCC(Nc2nnc(-c3ccc(Cl)cc3)c3ccccc23)C1 (centres unmarked) [Example 143, 4-(4-chlorophenyl)-N-(1-(2-fluoroethyl)pyrrolidin-3-yl)phthalazin-1-amine] |
| 1320 | Cc1cc(Cl)ccc1-c1nnc(NC2CCCN(C)C2)c2ccncc12 (centres unmarked) [Example 50, 4-(4-chloro-2-methylphenyl)-N-(1-methylpiperidin-3-yl)pyrido[3,4-d]pyridazin-1-amine] |
| 1120 | CC1(c2ccc(-c3nnc(Nc4cccc(O)c4)c4ccccc34)cc2)CC1 [Example 3, 3-((4-(4-(1-methylcyclopropyl)phenyl)phthalazin-1-yl)amino)phenol] |
| 1110 | CC1(O)CCCC(Nc2nnc(-c3ccc(Cl)cc3)c3ccccc23)C1 (centres unmarked) [Example 138, 3-((4-(4-chlorophenyl)phthalazin-1-yl)amino)-1-methylcyclohexan-1-ol] |
| 575 | COc1ccc(-c2nnc(N[C@@H]3C[C@@H](F)CN(C)C3)c3ccncc23)cc1 [Example 179, N-((3R,5R)-5-fluoro-1-methylpiperidin-3-yl)-4-(4-methoxyphenyl)pyrido[3,4-d]pyridazin-1-amine] |
| 457 | COc1ccc(-c2nnc(N[C@@H]3CCCN(C)C3)c3c2COCC3)cc1 [Example 223, (R)-4-(4-methoxyphenyl)-N-(1-methylpiperidin-3-yl)-7,8-dihydro-5H-pyrano[3,4-d]pyridazin-1-amine] |
| 437 | Oc1cccc(Nc2nnc(-c3cccc(C4CC4)c3)c3ccccc23)c1 [Example 10, 3-((4-(3-cyclopropylphenyl)phthalazin-1-yl)amino)phenol] |
| 381 | CN1CCCC(Nc2nnc(-c3ccc(Cl)cc3)c3ccncc23)C1 (centres unmarked) [Example 63, 1-(4-chlorophenyl)-N-(1-methylpiperidin-3-yl)pyrido[3,4-d]pyridazin-4-amine] |
| 157 | CN1CCC[C@@H](Nc2nnc(-c3ccc(OC(F)(F)F)c(C#N)c3)c3ccncc23)C1 [Example 24, (R)-5-(4-((1-methylpiperidin-3-yl)amino)pyrido[3,4-d]pyridazin-1-yl)-2-(trifluoromethoxy)benzonitrile] |
| 77 | CN1CCC[C@@H](Nc2nnc(-c3ccc(C(F)F)cc3)c3ccncc23)C1 [Example 37, (R)-1-(4-(difluoromethyl)phenyl)-N-(1-methylpiperidin-3-yl)pyrido[3,4-d]pyridazin-4-amine] |
| 56 | Clc1ccc(-c2nnc(NC3CCCN(C4CCCC4)C3)c3ccccc23)cc1 (centres unmarked) [Example 146, 4-(4-chlorophenyl)-N-(1-cyclopentylpiperidin-3-yl)phthalazin-1-amine] |
| 40 | COc1ccc(-c2nnc(N[C@@H]3CCCN(C)C3)c3ccccc23)c(F)c1 [Example 53, (R)-4-(2-fluoro-4-methoxyphenyl)-N-(1-methylpiperidin-3-yl)phthalazin-1-amine] |
| 38 | CN1CCC[C@@H](Nc2nnc(-c3ccc(OC(F)F)cc3)c3ccncc23)C1 [Example 27, (R)-1-(4-(difluoromethoxy)phenyl)-N-(1-methylpiperidin-3-yl)pyrido[3,4-d]pyridazin-4-amine] |
